In patent US10792275B2 (priority 2016, dated 2020):

How the values were obtained:
H5N1 influenza virus = assay type: in vivo, BALB/c mice; conditions: 1×LD50 dose of H5N1; nasal administration, 5 doses; PB2-39 2.5 mg/kg, zanamivir 20 μl of 2.5 mg/ml
H7N9 virus = assay type: in vivo, BALB/c mice; conditions: 1×LD80 dose of H7N9; nasal administration, 5 doses; PB2-39 2.5 mg/kg, zanamivir 20 μl of 2.5 mg/ml
H1N1 virus = assay: in vivo antiviral effect in mice infected with H1N1; conditions: for survival rate: nasal administration
influenza virus [1] = assay: microbe, parasite or virus in culture; assay type: cell-based; conditions: for Selectivity Index: CC50 divided by IC50; for IC50: unidentified influenza virus
water-solubility = assay type: physicochemical
in vitro = conditions: dog
influenza H1N1 virus = assay type: cell-based, influenza virus A
[2] = tested on: influenza viruses H1N1; H3N2; H5N1; H7N7; H7N9; H9N2; assay type: cell-based, influenza virus A; conditions: 20, 5, 1.25, 0.31 μM; 24 h after inoculation; MOI 0.002; RT-qPCR
influenza virus [3] = assay: lung viral load and histopathology in infected mice (PB2-39 study); conditions: fourth day following inoculation
[4] = 1×LD60 dose of H1N1, PB2-19 1 mg/kg body weight
[5] = 5×LD50 dose of H1N1, 5 doses from 6 h after inoculation, PB2-39 2.5 mg/kg, zanamivir 20 μl of 2.5 mg/ml
[6] = 1×LD60 dose of H1N1, PB2-19 1 mg/kg

| SMILES | survival rate (H5N1 influenza virus) | survival rate (H7N9 virus) | survival rate (H1N1 virus; [4]) | survival rate (H1N1 virus; [5]) | Selectivity Index (influenza virus [1]) | IC50 (influenza virus [1]) | water-solubility (water-solubility) | CC50 (in vitro) | histopathological findings (H1N1 virus; [6]) | viral proliferation in the lungs (H1N1 virus; [6]) | reduction of the viral titer of supernatant (influenza H1N1 virus) | inhibition of replication of tested influenza strains [2] | amounts of viruses in lung tissues (influenza virus [3]; plaque assay, PB2-39 2.5 mg/kg nasal) | histopathological examination: interstitial inflammatory cell infiltration and alveolar injury (influenza virus [3]; lung tissues) |
| --- | --- | --- | --- | --- | --- | --- | --- | --- | --- | --- | --- | --- | --- | --- |
| CC(=O)N[C@H]1[C@H]([C@H](O)[C@H](O)CO)OC(C(=O)O)=C[C@@H]1N=C(N)N [zanamivir, reference compound] | 100% | 100% | 100% | 100% |  |  |  |  |  |  |  |  |  |  |
| Cc1cc(C(=O)Nc2ccc(I)cc2C(=O)O)ccc1[N+](=O)[O-] [PB2-19, 5-iodo-2-[(3-methyl-4-nitrobenzoyl)amino]benzoic acid] |  |  | 100% |  | 273 | 550 ± 50 nM | limited | 150 ± 10 µM | corroborated the ability of PB2-19 to provide in vivo anti-influenza effects | effectively reduce |  |  |  |  |
| Cc1ccc(C(c2c(O)c3ccccc3oc2=O)c2c(O)c3ccccc3oc2=O)cc1 [PB2-35, 3,3′-[(4-methylphenyl)methylene]bis(4-hydroxy-2H-chromen-2-one)] |  |  |  |  | 40 | 1240 ± 210 nM |  | 50 ± 5 µM |  |  |  |  |  |  |
| O=c1oc2ccccc2c(O)c1C1c2c(c3ccccc3oc2=O)Oc2c1c(=O)oc1ccccc21 [PB2-39, 7-(4-hydroxy-2-oxo-2H-chromen-3-yl)-6H,7H,8Hchromeno[3,4′:5,6]pyrano[3,2-c]chromene-6,8-dione] | 100% | 100% |  | 100% |  | 1220 ± 230 nM |  | > 1000 µM |  |  | 100-1000 times | inhibited the replication of all the tested influenza strains in a dose-dependent manner | significantly reduced | improvement |
